Counter-ions that a name gives are not always drawn.
Biological target: T1, human HSD-1 (recombinant HSD-1) (Homo sapiens, UniProt P28845)
T1 construct: made in house
Assay: HSD-1 activity inhibitory action in vitro (SPA, conversion of cortisone to cortisol)
Assay type: biochemical
Settings: recombinant human HSD-1 expressed using baculovirus system; 10 nM 3H cortisone, 500 μM NADPH; room temperature 90 to 120 min; read-out: hHSD1 (IC50 (nM))

T1 sequence (P28845 whole entry): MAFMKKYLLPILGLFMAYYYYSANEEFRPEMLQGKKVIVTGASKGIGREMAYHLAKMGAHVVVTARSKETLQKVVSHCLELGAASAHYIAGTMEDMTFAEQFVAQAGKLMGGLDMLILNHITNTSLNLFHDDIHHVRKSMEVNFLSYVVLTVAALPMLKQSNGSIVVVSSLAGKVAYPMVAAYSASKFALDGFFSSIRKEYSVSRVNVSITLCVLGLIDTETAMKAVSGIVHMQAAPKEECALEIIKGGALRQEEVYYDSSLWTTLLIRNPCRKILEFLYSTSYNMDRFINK

IC50, < 30 nM:
CONC(=O)Nc1ccc(N2CCC(n3ncc(C(=O)N4CCC(c5ccccc5C(F)(F)F)C4)c3C3CC3)CC2)cc1 (centres unmarked) [Example 170, 1-(5-cyclopropyl-1-{1-[4-(3-methoxyureido)phenyl]piperidin-4-yl}-1H-pyrazole-4-carbonyl)-3-(2-trifluoromethylphenyl)pyrrolidine]
O=C(c1cnn(C2CCN(C(=O)N3CC[C@H](O)C3)CC2)c1C1CC1)N1CC[C@@H](c2ccccc2C(F)(F)F)C1 [Example 22, 1-(5-cyclopropyl-1-{1-[(S)-3-hydroxypyrrolidine-1-carbonyl]piperidin-4-yl}-1H-pyrazole-4-carbonyl)-[(S)-3-(2-trifluoromethylphenyl)]pyrrolidine]
CC(C)[C@H](N)C(=O)N1CCC(n2ncc(C(=O)N3CC[C@@H](c4ccccc4C(F)(F)F)C3)c2C2CC2)CC1 [Example 84, 1-(1-{1-[(S)-2-amino-3-methylbutyryl]piperidin-4-yl}-5-cyclopropyl-1H-pyrazole-4-carbonyl)-[(S)-3-(2-trifluoromethylphenyl)]pyrrolidine hydrochloride]
CN(C)C(=O)CN1CCC(n2ncc(C(=O)N3CC[C@@H](c4ccccc4C(F)(F)F)C3)c2C2CC2)CC1 [Example 100, 1-[5-cyclopropyl-1-(1-dimethylcarbamoylmethylpiperidin-4-yl)-1H-pyrazole-4-carbonyl]-[(S)-3-(2-trifluoromethylphenyl)]pyrrolidine hydrochloride]
O=C(NC1CCNCC1)N1CCC(n2ncc(C(=O)N3CC[C@@H](c4ccccc4C(F)(F)F)C3)c2C2CC2)CC1 [Example 37, 1-{5-cyclopropyl-1-[1-(piperidin-4-yl-carbamoyl)piperidin-4-yl]-1H-pyrazole-4-carbonyl}-[(S)-3-(2-trifluoromethylphenyl)]pyrrolidine hydrochloride]
O=C(Nc1ccccc1O)N1CCC(n2ncc(C(=O)N3CC[C@@H](c4ccccc4C(F)(F)F)C3)c2C2CC2)CC1 [Example 53, 1-{5-cyclopropyl-1-[1-(2-hydroxyphenylcarbamoyl)piperidin-4-yl]-1H-pyrazole-4-carbonyl}-[(S)-3-(2-trifluoromethylphenyl)]pyrrolidine]
NC(=O)c1ccc(N2CCC(n3ncc(C(=O)N4CCC(c5ccccc5C(F)(F)F)C4)c3C3CC3)CC2)cc1 (centres unmarked) [Example 165, 1-{1-[1-(4-carbamoylphenyl)piperidin-4-yl]-5-cyclopropyl-1H-pyrazole-4-carbonyl}-3-(2-trifluoromethylphenyl)pyrrolidine]
O=C(Nc1nccs1)N1CCC(n2ncc(C(=O)N3CCC(c4ccccc4C(F)(F)F)C3)c2C2CC2)CC1 (centres unmarked) [Example 145, 1-{5-cyclopropyl-1-[1-(thiazol-2-ylcarbamoyl)piperidin-4-yl]-1H-pyrazole-4-carbonyl}-3-(2-trifluoromethylphenyl)pyrrolidine]
O=C(Nc1ccc(Cl)nc1Cl)N1CCC(n2ncc(C(=O)N3CCC(c4ccccc4C(F)(F)F)C3)c2C2CC2)CC1 (centres unmarked) [Example 150, 1-{5-cyclopropyl-1-[1-(2,6-dichloropyridin-3-ylcarbamoyl)piperidin-4-yl]-1H-pyrazole-4-carbonyl}-3-(2-trifluoromethylphenyl)pyrrolidine]
CN(C)CCOC(=O)N1CCC(n2ncc(C(=O)N3CC[C@@H](c4ccccc4C(F)(F)F)C3)c2C2CC2)CC1 [Example 59, 1-{5-cyclopropyl-1-[1-(2-dimethylaminoethoxycarbonyl)piperidin-4-yl]-1H-pyrazole-4-carbonyl}-[(S)-3-(2-trifluoromethylphenyl)]pyrrolidine hydrochloride]
O=C(c1cnn(C2CCN(S(=O)(=O)C(F)(F)F)CC2)c1C1CC1)N1CC[C@@H](c2ccccc2C(F)(F)F)C1 [Example 108, 1-[5-cyclopropyl-1-(1-trifluoromethanesulfonylpiperidin-4-yl)-1H-pyrazole-4-carbonyl]-[(S)-3-(2-trifluoromethylphenyl)]pyrrolidine]
